Reference: patent US20090170880A1, “Methods and Means for the Treatment of Cancer” (priority 2007, published 2009)
Read-outs that look alike come from different tables or passages of the source.

Assays:
[1] = Stability of temozolomide in culture medium; assay type: physicochemical
[2] = Plasma exposure of oral temozolomide in mice; assay type: in vivo; conditions: mouse, 100 mg/kg, read-out: AUC0-7 h, plasma
Protocol: We also established the drug exposure in wild-type (n=18) and Bcrp1/Mdr1ab knockout mice (n=19) receiving an oral dose of 100 mg/kg by gavage. Blood was sampled from the tail at 15, 30 min and 1, 4 and 7 h post drug administration to obtain a full curve from each animal.
Plasma and brain AUC0-7h values and standard errors were calculated by the linear trapezoidal rule using standard equations (14). The plasma half-life of temozolomide was calculated by linear regression analysis after log transformation of the concentration data using Microsoft Excel 2003. The brain-to-plasma ratio was calculated for each individual animal. The two-sided unpaired Student's t-test was used for statistical analysis of AUC values. Bonferroni's test for multiple comparisons was calculated using SPSS (v12.0.1; SPSS Inc, Chicago, Ill., USA) for brain and plasma levels and brain-to-plasma ratios determined at 2 h post temozolomide administration with the inhibitors and for analyzing the results of the in vivo efficacy study.

murine P-gp (Mdr1a) = biological target: T1, murine P-gp (Mdr1a) (Mus musculus, UniProt P21447); assay: Transwell transport of temozolomide, LLC-Mdr1a cells; assay type: in vitro ADME; conditions: 40 μg/ml, LLC-Mdr1a versus LLC-PK1 monolayers
T1 construct: expressed in transfected cells; host or cells: LLC-PK1 (porcine kidney) cells transduced with murine Mdr1a
T1 sequence (P21447 whole entry): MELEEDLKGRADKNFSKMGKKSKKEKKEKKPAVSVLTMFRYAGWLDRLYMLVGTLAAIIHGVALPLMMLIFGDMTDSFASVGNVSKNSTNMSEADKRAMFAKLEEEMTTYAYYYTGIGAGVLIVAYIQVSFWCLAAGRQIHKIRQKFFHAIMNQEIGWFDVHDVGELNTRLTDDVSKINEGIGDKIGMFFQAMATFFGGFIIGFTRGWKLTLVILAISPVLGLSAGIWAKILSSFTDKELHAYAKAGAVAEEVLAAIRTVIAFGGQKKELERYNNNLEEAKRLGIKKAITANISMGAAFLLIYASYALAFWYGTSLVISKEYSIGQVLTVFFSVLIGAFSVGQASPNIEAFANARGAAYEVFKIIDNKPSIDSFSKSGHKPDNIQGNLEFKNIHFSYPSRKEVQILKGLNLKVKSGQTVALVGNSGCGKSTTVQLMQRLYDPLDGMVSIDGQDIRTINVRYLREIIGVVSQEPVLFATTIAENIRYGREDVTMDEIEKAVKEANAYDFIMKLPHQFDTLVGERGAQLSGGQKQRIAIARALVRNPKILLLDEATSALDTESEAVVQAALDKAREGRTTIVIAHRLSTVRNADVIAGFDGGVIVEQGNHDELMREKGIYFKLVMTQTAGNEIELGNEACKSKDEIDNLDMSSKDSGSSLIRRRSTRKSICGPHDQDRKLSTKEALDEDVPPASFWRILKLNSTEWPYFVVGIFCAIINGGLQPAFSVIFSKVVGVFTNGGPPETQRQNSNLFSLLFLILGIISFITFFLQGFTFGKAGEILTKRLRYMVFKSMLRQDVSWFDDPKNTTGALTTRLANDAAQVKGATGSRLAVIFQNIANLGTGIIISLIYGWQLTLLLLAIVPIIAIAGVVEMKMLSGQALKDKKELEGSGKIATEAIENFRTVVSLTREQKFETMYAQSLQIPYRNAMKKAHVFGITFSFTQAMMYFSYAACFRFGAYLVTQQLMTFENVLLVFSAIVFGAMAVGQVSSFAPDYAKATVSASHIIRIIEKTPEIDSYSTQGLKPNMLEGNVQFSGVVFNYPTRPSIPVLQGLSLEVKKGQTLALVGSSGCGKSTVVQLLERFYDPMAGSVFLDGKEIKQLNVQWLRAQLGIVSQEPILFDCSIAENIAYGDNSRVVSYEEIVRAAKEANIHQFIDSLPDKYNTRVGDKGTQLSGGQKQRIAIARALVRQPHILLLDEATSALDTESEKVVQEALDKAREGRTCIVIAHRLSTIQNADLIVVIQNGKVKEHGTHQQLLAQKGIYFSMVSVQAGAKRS
Protocol: (§1) The parental LLC pig-kidney (PK1) cell line and sublines transduced with murine Mdr1a or human MDR1 (12) and the parental Madine Darby Canine Kidney (MDCK) and murine Bcrp1 or human BCRP transduced sublines (13) were seeded on Transwell microporous polycarbonate membrane filters (3.0 μm pore size, 24 mm diameter; Costar Corning, N.Y., USA) at a density of 1×10^6 cells per well in 2 ml of MEM medium (Invitrogen Corporation, Carlsbad, Calif.) containing 10% v/v fetal calf serum. Cells were incubated at 37° C. in 5% CO2 for three days with one medium replacement after the first day. Two hours before the start of the experiment the medium in both compartments was replaced with 2 ml of OptiMEM medium (InVitrogen Corp.). At the start of the experiment the medium in the apical or basolateral compartment was replaced with 2 ml of freshly prepared OptiMEM medium containing 40 μg/ml of temozolomide. […] Zosuquidar (LY335979, 5 μM) was always added to the medium when doing experiments with MDCK cell lines to inhibit endogenous canine P-gp. Samples of 50 μl were collected every 30 min, for up to 2 h after start of the experiment. Because temozolomide is instable in medium at 37° C., we replaced one ml of the donor compartment by a freshly prepared aliquot every 30 min. […]

[3] = test system: recurrent grade 3 and grade 4 gliomas, GBM; conditions: cited from earlier work
human P-gp (MDR1) = biological target: T2, human P-gp (MDR1) (Homo sapiens, UniProt P08183); assay: Transwell transport of temozolomide, LLC-MDR1 cells; assay type: in vitro ADME; conditions: 40 μg/ml, LLC-MDR1 versus LLC-PK1 monolayers
T2 construct: expressed in transfected cells; host or cells: LLC-PK1 (porcine kidney) cells transduced with human MDR1
T2 sequence (P08183 whole entry): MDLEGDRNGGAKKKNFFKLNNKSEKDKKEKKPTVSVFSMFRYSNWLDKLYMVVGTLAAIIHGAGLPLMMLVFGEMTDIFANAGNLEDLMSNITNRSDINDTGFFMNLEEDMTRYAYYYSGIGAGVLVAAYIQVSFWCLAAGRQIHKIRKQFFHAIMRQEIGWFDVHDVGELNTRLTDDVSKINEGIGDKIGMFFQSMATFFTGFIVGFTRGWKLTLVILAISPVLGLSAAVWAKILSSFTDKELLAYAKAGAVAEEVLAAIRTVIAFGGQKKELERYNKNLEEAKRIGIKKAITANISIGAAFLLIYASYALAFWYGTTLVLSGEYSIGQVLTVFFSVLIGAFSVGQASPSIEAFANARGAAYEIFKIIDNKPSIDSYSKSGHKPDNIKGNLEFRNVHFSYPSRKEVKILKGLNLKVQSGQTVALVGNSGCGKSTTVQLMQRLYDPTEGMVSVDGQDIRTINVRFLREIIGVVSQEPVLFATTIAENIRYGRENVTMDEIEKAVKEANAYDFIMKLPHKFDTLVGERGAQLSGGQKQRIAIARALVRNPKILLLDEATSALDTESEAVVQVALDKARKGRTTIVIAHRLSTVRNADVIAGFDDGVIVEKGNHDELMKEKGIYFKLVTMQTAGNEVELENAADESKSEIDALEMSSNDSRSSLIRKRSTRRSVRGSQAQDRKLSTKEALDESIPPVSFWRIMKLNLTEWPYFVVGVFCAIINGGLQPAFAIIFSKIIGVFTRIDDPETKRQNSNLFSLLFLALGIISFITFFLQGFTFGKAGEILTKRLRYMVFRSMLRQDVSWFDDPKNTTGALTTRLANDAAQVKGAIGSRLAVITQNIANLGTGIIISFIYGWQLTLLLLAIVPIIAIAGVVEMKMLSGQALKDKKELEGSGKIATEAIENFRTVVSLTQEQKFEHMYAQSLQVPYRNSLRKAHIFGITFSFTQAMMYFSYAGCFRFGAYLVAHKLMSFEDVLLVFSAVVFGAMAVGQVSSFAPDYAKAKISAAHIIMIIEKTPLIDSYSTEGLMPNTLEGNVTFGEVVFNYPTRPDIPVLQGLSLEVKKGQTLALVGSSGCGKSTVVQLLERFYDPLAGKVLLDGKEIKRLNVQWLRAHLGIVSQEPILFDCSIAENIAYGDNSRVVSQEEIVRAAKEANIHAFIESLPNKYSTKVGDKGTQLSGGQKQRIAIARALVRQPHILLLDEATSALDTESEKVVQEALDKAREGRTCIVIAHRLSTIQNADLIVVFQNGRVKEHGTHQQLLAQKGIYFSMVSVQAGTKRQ
Protocol: as §1

human BCRP = biological target: T3, human BCRP (Homo sapiens, UniProt Q9UNQ0); assay: Transwell transport of temozolomide, MDCK-BCRP cells; assay type: in vitro ADME; conditions: 40 μg/ml, MDCK-BCRP versus MDCK parent, zosuquidar 5 μM
T3 construct: expressed in transfected cells; host or cells: MDCK (canine kidney) cells transduced with human BCRP
T3 sequence (Q9UNQ0 1-655): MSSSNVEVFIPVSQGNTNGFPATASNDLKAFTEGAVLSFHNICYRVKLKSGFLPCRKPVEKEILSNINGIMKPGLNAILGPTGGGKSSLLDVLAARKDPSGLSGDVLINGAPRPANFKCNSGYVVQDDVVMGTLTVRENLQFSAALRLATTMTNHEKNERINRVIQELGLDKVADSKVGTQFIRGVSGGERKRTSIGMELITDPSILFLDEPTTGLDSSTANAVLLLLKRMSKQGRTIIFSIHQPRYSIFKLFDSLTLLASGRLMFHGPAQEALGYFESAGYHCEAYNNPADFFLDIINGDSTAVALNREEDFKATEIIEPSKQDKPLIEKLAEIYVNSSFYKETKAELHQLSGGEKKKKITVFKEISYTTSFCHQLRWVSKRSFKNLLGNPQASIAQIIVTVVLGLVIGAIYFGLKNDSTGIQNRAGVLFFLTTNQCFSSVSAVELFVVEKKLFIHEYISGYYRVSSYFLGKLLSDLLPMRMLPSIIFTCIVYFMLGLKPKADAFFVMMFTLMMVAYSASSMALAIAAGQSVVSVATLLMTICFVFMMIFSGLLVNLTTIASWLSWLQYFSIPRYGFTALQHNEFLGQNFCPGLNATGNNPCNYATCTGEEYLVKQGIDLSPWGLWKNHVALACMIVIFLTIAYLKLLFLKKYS
Protocol: as §1

U87 = assay: Antitumor response against U87 tumor; assay type: in vivo; conditions: one single dose of 25 mg/kg, results not shown

Cn1nnc2c(C(N)=O)ncn2c1=O [temozolomide, 8-carbamoyl-3-methyl-[3H]-imidazo[5,1-d]-1,2,3,5-tetrazin-4-one]
half-life ([1]; culture medium at 37° C.): ~30 min | degradation ([1]; pH 7.4, in 30 min): about 50% | AUC(0-t) ([2]; Bcrp, Mdr1ab knockout mice): 164 ± 4.5 µg·h/mL | AUC(0-t) ([2]; Wild-type mice): 154 ± 4.1 µg·h/mL | transport of temozolomide by murine P-gp (murine P-gp (Mdr1a)): very limited if any evidence for transport | transport of temozolomide by murine P-gp (murine P-gp (Mdr1a); listed as Temozolomide): not readily detected | progression free survival compared to procarbazine ([3]; patients): significantly longer | survival, radiotherapy with concomitant and adjuvant temozolomide versus radiotherapy alone ([3]; phase III trial): significant survival benefit | objective response rate ([3]; recurrent grade 3 gliomas): 35% | objective response rate ([3]; recurrent grade 4 gliomas): 8% | transport of temozolomide by human P-gp (human P-gp (MDR1)): very limited if any evidence for transport | transport of temozolomide by human P-gp (human P-gp (MDR1); listed as Temozolomide): not readily detected | transport of temozolomide by human BCRP (human BCRP): more moderate transport | transport of temozolomide by human BCRP (human BCRP; listed as Temozolomide): less | antitumor response (U87): significant antitumor response
